According to US20030083342A1, “Combination of organic compounds” (priority 2002, published 2003):
Read-outs that look alike come from different tables or passages of the source.

Tests used:
response to Ang I = assay: Response to injected Ang I in pretreated Wistar Kyoto rats; assay type: in vivo; settings: Wistar Kyoto rats pretreated with (+)-fadrozole hydrochloride or valsartan 5 mg/kg/d; comparison of the two pretreatments
Procedure: The rats are divided into 5 groups: group 1, control (n=40); Group 2, valsartan (5 mg/kg/d; n=40); Group 3, the (+)-enantiomer of the hydrochloride of fadrozole (n=30); Group 4, a combination of the (+)-enantiomer of the hydrochloride of fadrozole and valsartan (5 mg/kg/d); n=30) and Group 5, valsartan (50 mg/kg/d; n=30). The drugs are administered in drinking fluid.

pressor effect of Ang II = settings: Ang II at 1 mg/kg, normotensive rats, cited from earlier work

Structure (SMILES) | response to Ang I injected (response to Ang I) | reduction of the pressor effect of Ang II (pressor effect of Ang II; valsartan 5 mg/kg/d) | reduction of the pressor effect of Ang II (pressor effect of Ang II; valsartan 50 mg/kg/d)
Cl.N#Cc1ccc([C@H]2CCCc3cncn32)cc1 [(+)-enantiomer of the hydrochloride of fadrozole] | similar | – | –
CCCCC(=O)N(Cc1ccc(-c2ccccc2-c2nnn[nH]2)cc1)[C@H](C(=O)O)C(C)C [valsartan, (S)-N-(1-carboxy-2-methylprop-1-yl)-N-pentanoyl-N-[2′(1H-tetrazol-5-yl)biphenyl-4-yl-methyl]amine] | similar | 49% | 73%
